Assay [1] has as its target T1, E. coli LipB (EcLipB) (Escherichia coli, UniProt P60720, K135A/C169A). To be noted: 15N-labelled inactive double mutant, C8-CoA up to 1:2 molar ratio.
Assay [2] has as its target T1, E. coli LipB (EcLipB). As to conditions: CoA:LipB 10:1, 50 mM Tris, 200 mM NaCl, pH 7.8, 283 K.
Assay [3] concerns the target E. coli LipB (EcLipB) (Escherichia coli, UniProt P60720, R71A). To be noted: CoA:LipB 10:1, 50 mM Tris, 200 mM NaCl, pH 7.8, 283 K.
Assay [4] concerns the target E. coli LipB (EcLipB) (Escherichia coli, UniProt P60720, G72A/G73A). As to conditions: CoA:LipB 10:1 (STD, 283 K) or 8:1 (31P, 298 K), 50 mM Tris, 200 mM NaCl, pH 7.8.
Assay [5] has as its target E. coli LipB (EcLipB) (Escherichia coli, UniProt P60720, C169A). To be noted: CoA:LipB 8:1, 50 mM Tris, 200 mM NaCl, pH 7.8, 298 K.

As to `CCCCCCCC(=O)SCCNC(=O)CCNC(=O)[C@H](O)C(C)(C)COP(=O)(O)OP(=O)(O)OC[C@H]1O[C@@H](n2cnc3c(N)ncnc32)[C@H](O)[C@@H]1OP(=O)(O)O` [C8-CoA], the “15N TROSY-HSQC NMR titration” value in assay [1] is listed as “The pattern of amide perturbations though confirmed that E. coli LipB binds C8-CoA”.

Turning to `CC(C)(COP(=O)(O)OP(=O)(O)OC[C@H]1O[C@@H](n2cnc3c(N)ncnc32)[C@H](O)[C@@H]1OP(=O)(O)O)[C@@H](O)C(=O)NCCC(=O)NCCS` [CoA], the “1H STD NMR” value in assay [2] is “STD spectra for CoA in the presence of WT LipB, LipBK135A/C169A (catalytically inactive double mutant)”; in assay [3], “visible in both the spectra, suggesting binding of CoA with the mutants”. Further, the “1H STD NMR; 31P NMR” value in assay [4] was “visible in both the spectra, suggesting binding of CoA with the mutants”. The “31P NMR” value in assay [5] was “upfield change in chemical shift upon addition of WT LipB”.

For the origin of these results see paper PMC9307952, “Lipoate protein ligase B primarily recognizes the C8-phosphopantetheine arm of its donor substrate and weakly binds the acyl carrier protein” (The Journal of Biological Chemistry, 2022).
